# Where two headings read alike, the source gives them in different places.
# What was measured:
# [1] = iloprost infusion; ratio x:1; cited from earlier work
# severe frostbite [2] = conditions: cited from earlier work
# severe frostbite [3] = experiment: systematic literature review and meta-analysis of amputation rates in severe frostbite; format: in vivo, human
# Protocol: Frostbite is an injury caused by exposure of tissue to freezing temperatures. Severe frostbite may result in amputation leading to considerable morbidity. The objective was to identify and synthesize, via systematic literature review and meta-analysis (MA), evidence published on patient-level historical amputation rates in adults with severe frostbite treated with and without iloprost.
# Methods: The literature review was conducted using Preferred Reporting Items for Systematic Reviews and Meta-Analyses (PRISMA) guidelines. It identified English-language articles published from Jan. 1, 2000 to Jul. 31, 2022 reporting amputation rates associated with iloprost and standard of care (SoC) treatments in severe frostbite. Study designs of interest were clinical trials (randomized and single arm), observational studies, and case series with at least 10 patients. MAs of proportions of patients with amputation were conducted. The published studies considered for the MA include:
# Determination of Risk of Amputation: Table 1 discloses the historical amputation rates in severe frostbite patients. The studies listed in Table 1 was the basis of MA for determining the historical risk of amputation.
# Sensitivity analyses reflect several ways of deriving the data (amputation rate for grade 3-4 frostbite) from the supplemental table in Cauchy 2011 (Cauchy et al., 2011).
# Efficacy Proportion of Digits with Amputation: Data from 2 studies reporting the proportion of digits with amputations after receiving iloprost versus SoC for Grade 3/4 frostbite were included in the meta-analysis.
# [4] = IV bag solution stability of fully diluted ready-to-use iloprost (HPLC); format: physicochemical; conditions: condition ia, 25° C./60% RH study; Table 1A
# Protocol: Iloprost 100 μg/mL injection product is administered to patients by IV bag infusion over a period of six hours. The fully diluted ready to use iloprost is prepared in pharmacy cleanroom using sterile preparation standards (USP Chapter <797>) by pharmacy trained and licensed staff. The fully diluted ready to use drug product may be prepared several hours ahead of treatment with storage at ambient conditions or several days ahead of treatment with storage at refrigerated (2-8° C.) conditions. […] The bags are then manually mixed gently to provide a uniform solution. Administration IV bags were prepared and stored at several conditions with routine sampling for assay testing for stability under i) 25° C./60% RH, ii) 5° C. for 5 days to 25° C./60% RH, iii) 5° C. for 8 days to 25° C./60% RH. […] Sampling time for condition […], and 24 h Sampling time for ib): 8 h, 12 h, 48 h, and 96 h Sampling time for condition ii): 5 days (at the end of storage in 2-8° C. stability chamber), 5 days and 8 h, and 5 days and 12 h Sampling time for condition iii): 8 days (at the end of storage in 2-8° C. stability chamber), 8 days and 8 h, and 8 days and 12 h Sample Analysis: Samples were analyzed by HPLC using a validated method (validation protocol not shown). […] The % Initial (initial concentration) of each stored sample was determined per the equation below: […]
# [5] = Cauchy 2011, iloprost alone and iloprost+tPA combined (n=177)
smiles,measurement,setting,value
"CC#CCC(C)[C@H](O)/C=C/[C@@H]1[C@H]2C/C(=C/CCCC(=O)O)C[C@H]2C[C@H]1O (stereo partly drawn) [iloprost, (5E)-5-[(3aS,4R,5R,6aS)-5-hydroxy-4-[(E,3S)-3-hydroxy-4-methyloct-1-en-6-ynyl]-3,3a,4,5,6,6a-hexahydro-1H-pentalen-2-ylidene]pentanoic acid]",ratio of antiaggregatory:vasodilatory potency in vivo,[1],2-7
same,Amputation Rate: patients considered likely to receive amputation,"severe frostbite [2]; Cauchy 2011, open label RCT, severe (grades 3 or 4) frostbite, with SoC after rewarming, radiotracer anomaly in technetium scintigraphy after 8 days of treatment",0 patients
same,digits with amputation,"severe frostbite [2]; Cauchy 2011, Grade 3/4 frostbite, iloprost alone",zero out of 78
same,digit amputations,severe frostbite [2]; [5],1.3%
same,number of digit amputations,severe frostbite [2]; [5],3
same,digits with amputation,"severe frostbite [2]; Crooks 2022, Grade 3-4 frostbite, minority of iloprost patients also received tPA (5 of 26)",31.1%
same,patients with amputation,"severe frostbite [2]; Poole 2021, iloprost plus SoC, with or without alteplase and heparin",33%
same,safety events associated with iloprost,"severe frostbite [2]; three iloprost frostbite studies, headache, flushing, palpitations/tachycardia, nausea and vomiting",generally mild
same,"odds ratio (OR) of digit amputation, iloprost+tPA patients of Cauchy 2011 added","severe frostbite [3]; iloprost alone and iloprost plus tPA vs SoC, 95% CI: 0.001, 1.12, p=0.057, FIG. 4",0.034
same,"odds ratio (OR) of digit amputation, base-case","severe frostbite [3]; iloprost alone vs SoC, 2 studies meta-analyzed, 95% CI: 0.002-0.966, p=0.047, FIG. 3",0.047
same,"proportion of patients with amputation, pooled arm-level data","severe frostbite [3]; meta-analysis, random effects, 95% CI: 0-45%, FIG. 2",15%
same,"advantage for iloprost over SoC (reduction in amputation), base-case","severe frostbite [3]; studies with severe frostbite, no alprostadil, 95% CI: 6-73%, p=0.02",39%
same,% initial results for all of the IV bag preparations (range),[4],94.2-94.9%

# Reference: patent US12409183B2, “Method of using iloprost for treating frostbite” (BTG INTERNATIONAL INC., priority 2023, dated 2025)
